Laboratory results published in US6913748B2, “Cross-linkers with high reactivity and solubility and their use in the preparation of conjugates for targeted delivery of small molecule drugs” (Immunogen, Inc., priority 2002, dated 2005).

Key:
[1] = Unconjugated (free) drug by reverse phase HPLC analysis of the conjugate sample; settings: N901-DM1 conjugate, 1.7-fold DM1
Experimental: (§1) The increased efficiency of conjugation using the SSNPP linker is accomplished without compromise in the monomeric character of the conjugate and in the amount of unconjugated (free) drug associated with the antibody conjugate. SEC analysis is used to determine the amount of monomer, dimer, trimer, or higher molecular weight aggregates. The level of unconjugated drug was measured by reverse phase HPLC analysis of the conjugate sample. The percent free drug for either reaction was less than 2%. In addition, shorter conjugation reaction times are possible with SSNPP compared with SPP (5), which may decrease loss of some antibodies that are sensitive to prolonged exposure to organic solvent required in the conjugation reaction. Shorter reaction times should also decrease drug loss due to DM1 dimerization, which is a competing side reaction during conjugation. The resulting increases in yield and reduced side reactions should further contribute to reduced DM1 requirements.

[2] = SEC analysis of conjugate (monomer, dimer, trimer, higher molecular weight aggregates); type: physicochemical; settings: N901-DM1 conjugate; conjugation at pH 7.4, 2 hours, 1.7-fold DM1
Experimental: as §1

N901 antibody with DM1 = assay: Conjugation (disulfide exchange) of linker-modified N901 antibody with DM1; set-up: species or system murine; settings: pH 7.4; 1.1-fold molar excess of DM1 per linker; compared with SPP-modified antibody
Experimental: SPP or SSNPP linker was dissolved in ethanol at a concentration of approximately 10 mM. Antibody was dialyzed into buffer A (50 mM KPi, 50 mM NaCl, 2 mM EDTA, pH 6.5). For the linker reaction, the antibody was at 8 mg/ml, and 7 equivalents of linker were added while stirring in the presence of 5% (v/v) ethanol. The reaction was allowed to proceed at ambient temperature for 90 minutes. Unreacted linker was removed from the antibody by Sephadex G25 gel filtration using a Sephadex G25 column equilibrated with Buffer A at pH 6.5 or 150 mM potassium phosphate buffer containing 100 mM NaCl, pH 7.4 as indicated. For the SPP linker, the extent of modification was assessed by release of pyridine-2-thione using 50 mM DTT and measuring the absorbance at 343 nm as described below (ε343=8080 M^−1 cm^−1 for free pyridine-2-thione). For SSNPP, modification was assessed directly by measuring the absorbance at 325 nm (ε325=10,964 M^−1 cm^−1 for the 4-nitropyridyl-2-dithio group linked to antibody). […] For DML, the extent of drug conjugation to antibody was assessed by measuring A252 and A280 of the conjugate as described below. […]
Calculating Ab and DM1 component concentrations of Ab-DM1. […] The components are quantified using the following algebraic expressions which account for the contribution of each component at each wavelength (CAb is the molar concentration of Ab and CD is the molar concentration of DM1): […]

[3] = Solubility of cross-linkers in water / aqueous solutions; type: physicochemical

SMILES | % free drug ([1]; conjugation at pH 6.5, 2 hours) [%] | % free drug ([1]; conjugation at pH 7.4, 2 hours) [%] | SEC Analysis Dimer [2] [%] | SEC Analysis HMW [2] [%] | SEC Analysis Monomer [2] [%] | SEC Analysis Trimer [2] [%] | time course of the reaction of DM1 with modified antibody (FIG. 8) (N901 antibody with DM1) | solubility in water / aqueous solutions [3]
CC(CCC(=O)ON1C(=O)CCC1=O)SSc1ccccn1 (centres unmarked) [SPP, reference compound] | 1.9 | 1.8 | 4.9 | 0.2 | 93.6 | 0.4 | – | –
CC(CCC(=O)ON1C(=O)CC(S(=O)(=O)O)C1=O)SSc1ccc([N+](=O)[O-])cn1 (centres unmarked) [SSNPP, N-Sulfosuccinimidyl 4-(5-nitro-2-pyridyldithio)-pentanoate] | 0.9 | 0.8 | 6.3 | 0.1 | 91.9 | 0.6 | considerably faster | highly water-soluble
